Read-outs that look alike come from different tables or passages of the source.
Key:
[1] = system: Mycolicibacterium aurum DSM 43,999 (ATCC 23366); test: Antimycobacterial microdilution (resazurin) vs M. aurum; format: cell-based; settings: Middlebrook 7H9, resazurin, read-out: MIC M. aurum
[2] = system: Pseudomonas aeruginosa CCM 3955 (ATCC 27853); test: Antibacterial microdilution broth (EUCAST); format: cell-based; settings: read-out: MIC Pseudomonas aeruginosa
[3] = system: methicillin-resistant Staphylococcus aureus subsp. aureus (MRSA) CCM 4750 (ATCC 43300); test: microbe, parasite or virus in culture; format: cell-based; settings: read-out: MIC Methicillin-resistant Staphylococcus aureus subsp. aureus
[4] = system: Mtb MATI (MDR clinical isolate); test: microbe, parasite or virus in culture; format: cell-based; settings: Mycobacterium tuberculosis, read-out: MIC Mtb MATI
[5] = system: Aspergillus fumigatus ATCC 204305; test: Antifungal microdilution broth (EUCAST); format: cell-based; settings: Aspergillus fumigatus, ATCC204305, read-out: MIC Aspergillus fumigatus
[6] = system: Candida tropicalis CCM 8264 (ATCC 750); test: Antifungal microdilution broth (EUCAST); format: cell-based; settings: read-out: MIC Candida tropicalis
[7] = system: Enterococcus faecalis CCM 4224 (ATCC 29212); test: Antibacterial microdilution broth (EUCAST); format: cell-based; settings: read-out: MIC Enterococcus faecalis
[8] = system: Mycolicibacterium smegmatis DSM 43,465 (ATCC 607); test: Antimycobacterial microdilution (resazurin) vs M. smegmatis; format: cell-based
[9] = system: Candida krusei CCM 8271 (ATCC 6258); test: Antifungal microdilution broth (EUCAST); format: cell-based; settings: Pichia kudriavzevii, read-out: MIC Candida krusei
[10] = system: Candida parapsilosis CCM 8260 (ATCC 22019); test: Antifungal microdilution broth (EUCAST); format: cell-based; settings: Lodderomyces parapsilosis, read-out: MIC Candida parapsilosis
[11] = system: Acinetobacter baumannii DSM 30007 (ATCC 19606); test: Antibacterial microdilution broth (EUCAST); format: cell-based; settings: read-out: MIC Acinetobacter baumannii
[12] = system: Klebsiella pneumoniae CCM 4415 (ATCC 10031); test: Antibacterial microdilution broth (EUCAST); format: cell-based; settings: Klebsiella pneumoniae, read-out: MIC Klebsiella pneumoniae
[13] = system: Mycobacterium avium DSM 44,156 (ATCC 25291); test: Antimycobacterial microdilution (resazurin) vs M. avium; format: cell-based; settings: Mycobacterium avium, Middlebrook 7H9, resazurin; read-out: MIC M. avium
[14] = system: Candida albicans CCM 8320 (ATCC 24433); test: Antifungal microdilution broth (EUCAST); format: cell-based; settings: Candida albicans, read-out: MIC Candida albicans
[15] = system: Trichophyton interdigitale CCM 8377 (ATCC 9533); test: Antifungal microdilution broth (EUCAST); format: cell-based; settings: Trichophyton interdigitale, read-out: MIC Trichophyton interdigitale
[16] = system: Mycobacterium tuberculosis H37Rv CNCTC My 331/88 (ATCC 27294); test: Microplate Alamar Blue assay vs Mtb H37Rv; format: cell-based; settings: Mycobacterium tuberculosis, pH 6.6, MABA, Middlebrook 7H9 pH 6.6, recalculated from µg/mL; read-out: MIC Mtb H37Rv
[17] = system: Mtb IZAK (MDR clinical isolate); test: microbe, parasite or virus in culture; format: cell-based; settings: Mycobacterium tuberculosis, read-out: MIC Mtb IZAK
HepG2 cell line = test: Cytotoxicity screening, CellTiter 96 assay; settings: for IC50: Homo sapiens, HepG2, 24 h, read-out: IC50 HepG2
[18] = system: Lichtheimia corymbifera CCM 8077; test: Antifungal microdilution broth (EUCAST); format: cell-based; settings: Lichtheimia corymbifera, CCM8077, read-out: MIC Lichtheimia corymbifera
[19] = system: Staphylococcus epidermidis CCM 4418 (ATCC 12228); test: Antibacterial microdilution broth (EUCAST); format: cell-based; settings: read-out: MIC Staphylococcus epidermidis
[20] = system: Escherichia coli CCM 3954 (ATCC 25922); test: Antibacterial microdilution broth (EUCAST); format: cell-based; settings: Escherichia coli, read-out: MIC Escherichia coli
[21] = system: Aspergillus flavus CCM 8363; test: Antifungal microdilution broth (EUCAST); format: cell-based; settings: Aspergillus flavus, CCM8363, read-out: MIC Aspergillus flavus
[22] = system: Staphylococcus aureus subsp. aureus CCM 4223 (ATCC 29213); test: Antibacterial microdilution broth (EUCAST); format: cell-based; settings: read-out: MIC Staphylococcus aureus subsp. aureus
[23] = system: Mycobacterium tuberculosis H37Ra ITM-M006710 (ATCC 9431); test: Antimycobacterial microdilution (resazurin) vs Mtb H37Ra; format: cell-based; settings: Middlebrook 7H9, resazurin, recalculated from µg/mL, read-out: MIC Mtb H37Ra
[24] = system: Mycobacterium kansasii DSM 44,162 (ATCC 12478); test: Antimycobacterial microdilution (resazurin) vs M. kansasii; format: cell-based; settings: Middlebrook 7H9, resazurin, read-out: MIC M. kansasii
[25] = Middlebrook 7H9, resazurin, read-out: MIC M. smeg.

O=C(Nc1ccc2c(c1)B(O)OC2)c1cncc(Cl)n1 [Compound 4, 6-chloro-N-(1-hydroxy-1,3-dihydrobenzo[c][1,2]oxaborol-6-yl)pyrazine-2-carboxamide]
250 µM: MIC ([3]; 24 h) | MIC ([3]; 48 h)
500 µM: MIC ([19]; 24h incubation) | MIC ([19]; 48h incubation)
250.9 to 252.4 °C: melting point
27 µM: MIC [8, 25] | MIC [13] | MIC [24]
108 µM: MIC [23]
13.5 µM: MIC [1]
86.4 µM: MIC [4] | MIC [16] | MIC [17]
> 1 mM: IC50 (HepG2 cell line)
125 µM: MIC ([22]; 24h incubation) | MIC ([22]; 48h incubation)
> 500 µM: MIC ([2]; 24h incubation) | MIC ([2]; 48h incubation) | MIC ([5]; 24h incubation) | MIC ([5]; 48h incubation) | MIC ([6]; 24h incubation) | MIC ([6]; 48h incubation) | MIC ([7]; 24h incubation) | MIC ([7]; 48h incubation) | MIC ([9]; 24h incubation) | MIC ([9]; 48h incubation) | MIC ([10]; 24h incubation) | MIC ([10]; 48h incubation) | MIC ([11]; 24h incubation) | MIC ([11]; 48h incubation) | MIC ([12]; 24h incubation) | MIC ([12]; 48h incubation) | MIC ([14]; 24h incubation) | MIC ([14]; 48h incubation) | MIC ([15]; 72h incubation) | MIC ([15]; 120h incubation) | MIC ([18]; 24h incubation) | MIC ([18]; 48h incubation) | MIC ([20]; 24h incubation) | MIC ([20]; 48h incubation) | MIC ([21]; 24h incubation) | MIC ([21]; 48h incubation)

O=C(Nc1ccc2c(c1)B(O)OC2)c1ccccn1 [Compound 10, N-(1-hydroxy-1,3-dihydrobenzo[c][1,2]oxaborol-6-yl)picolinamide]
< 62 µM: MIC [8, 25] | MIC [13] | MIC [16] | MIC [23]
250 µM: MIC ([3]; 24 h) | MIC ([3]; 48 h) | MIC ([22]; 24h incubation) | MIC ([22]; 48h incubation)
183.7 to 186.1 °C: melting point
61.5 µM: MIC ([8]; read-out: MIC M. smeg., Middlebrook 7H9, resazurin)
98.4 µM: MIC [4] | MIC [17]
> 500 µM: MIC ([2]; 24h incubation) | MIC ([2]; 48h incubation) | MIC ([5]; 24h incubation) | MIC ([5]; 48h incubation) | MIC ([6]; 24h incubation) | MIC ([6]; 48h incubation) | MIC ([7]; 24h incubation) | MIC ([7]; 48h incubation) | MIC ([9]; 24h incubation) | MIC ([9]; 48h incubation) | MIC ([10]; 24h incubation) | MIC ([10]; 48h incubation) | MIC ([11]; 24h incubation) | MIC ([11]; 48h incubation) | MIC ([12]; 24h incubation) | MIC ([12]; 48h incubation) | MIC ([14]; 24h incubation) | MIC ([14]; 48h incubation) | MIC ([15]; 72h incubation) | MIC ([15]; 120h incubation) | MIC ([18]; 24h incubation) | MIC ([18]; 48h incubation) | MIC ([20]; 24h incubation) | MIC ([20]; 48h incubation) | MIC ([21]; 24h incubation) | MIC ([21]; 48h incubation)
> 1 mM: IC50 (HepG2 cell line)
500 µM: MIC ([19]; 24h incubation) | MIC ([19]; 48h incubation)

O=C(Nc1ccc2c(c1)B(O)OC2)c1cnc2ccccc2n1 [Compound 17, N-(1-hydroxy-1,3-dihydrobenzo[c][1,2]oxaborol-6-yl)quinoxaline-2-carboxamide]
41 µM: MIC [4] | MIC [17]
20.5 µM: MIC [16]
102 µM: MIC [13]
> 0.25 mM: IC50 (HepG2 cell line)
> 500 µM: MIC ([2]; 24h incubation) | MIC ([2]; 48h incubation) | MIC ([3]; 24 h) | MIC ([3]; 48 h) | MIC ([5]; 24h incubation) | MIC ([5]; 48h incubation) | MIC ([6]; 24h incubation) | MIC ([6]; 48h incubation) | MIC ([7]; 24h incubation) | MIC ([7]; 48h incubation) | MIC ([9]; 24h incubation) | MIC ([9]; 48h incubation) | MIC ([10]; 24h incubation) | MIC ([10]; 48h incubation) | MIC ([11]; 24h incubation) | MIC ([11]; 48h incubation) | MIC ([12]; 24h incubation) | MIC ([12]; 48h incubation) | MIC ([14]; 24h incubation) | MIC ([14]; 48h incubation) | MIC ([15]; 72h incubation) | MIC ([15]; 120h incubation) | MIC ([18]; 24h incubation) | MIC ([18]; 48h incubation) | MIC ([19]; 24h incubation) | MIC ([19]; 48h incubation) | MIC ([20]; 24h incubation) | MIC ([20]; 48h incubation) | MIC ([21]; 24h incubation) | MIC ([21]; 48h incubation) | MIC ([22]; 24h incubation) | MIC ([22]; 48h incubation)
25.6 µM: MIC [24]
12.8 µM: MIC [1] | MIC [8, 25]
> 819 µM: MIC [23]
non-toxic: toxicity to HepG2 up to highest tested concentration (HepG2 cell line; tested up to 500 µM (2, 3), 250 µM (12, 17), 100 µM (6, 7, 11) because of solubility)
